In paper PMC7179450, “Primary Human Hepatocytes, But not HepG2 or Balb/c 3T3 Cells, Efficiently Metabolize Salinomycin and Are Resistant to Its Cytotoxicity” (Molecules, 2020):
Where two headings read alike, the source gives them in different places.

What was measured:
Balb/c 3T3 cells = test: TPC assay in Balb/c 3T3; assay type: cell-based, mouse; conditions: for EC50: Mus musculus, read-out: EC50 (effective concentration)
Protocol: (§1) The HepG2 cell line was purchased from the American Type Culture Collection (ATCC® HB-8065™). The cells were cultured in Minimum Essential Medium Eagle (MEME) (Sigma–Aldrich Co. (St. Louis, MO, USA)). Normal murine embryonic fibroblasts, Balb/c 3T3 clone A31 cell line (gift from Department of Swine Diseases of the National Veterinary Research Institute in Pulawy) was cultured in Dulbecco’s Modified Eagle’s Medium (DMEM) (Invitrogen Corporations (Paisley, UK)). The media were supplemented with 10% BCS (Balb/c 3T3), 10% FBS (HepG2), 1% L-glutamine, and 1% antibiotic solution. The cells were maintained in 75 cm^2 cell culture flasks in humidified incubator at 37 °C, in an atmosphere of 5% CO2. The medium was refreshed every two or three days and the cells were trypsinized by 0.25% trypsin–0.02% EDTA after reaching 70–80% confluence. The initial cell viability was determined with the trypan blue exclusion test. Single cell suspensions were prepared and adjusted to a density of 2 × 10^5 cell/mL (HepG2) and 1 × 10^5 cell/mL (Balb/c 3T3). The cell suspension was transferred to 96-well plates (100 µL/well) and incubated for 24 h before exposure to the studied drugs.
(§2) The concentration ranges of the drugs were chosen according to their solubility and their plasma level. Each drug was dissolved in DMSO. The final concentration of DMSO was 0.1% or 0.2% in the medium for both samples and corresponding controls. […] All drug solutions in medium were freshly prepared and protected from light. SAL was tested in seven concentrations from 0.39 to 25 µg/mL. Tiamulin was added in two concentrations (1 and 10 µg/mL) or just one concentration (1 µg/mL) to cell lines or human hepatocytes, respectively. […] The cytotoxicity was assessed after 24 and 48 h of exposure of cell lines or after 12 and 24 h exposure of PHH. […]
(§3) The assay was based on staining total cellular protein [14]. […] The absorbance was measured at 595 nm in a microplate reader using blank as a reference. Cytotoxicity was expressed as a percentage of the negative control (0.1% or 0.2% DMSO).

horses = conditions: cited from earlier work
rats = conditions: cited from earlier work
HepG2 cells = test: MTT assay, cytotoxicity in HepG2; assay type: cell-based; conditions: Homo sapiens, mean ± SEM, n = 3, read-out: EC50 (effective concentration)
Protocol: as §1, with “The medium was refreshed every two or three days and the cells were trypsinized by 0.25% trypsin–0.02% EDTA after reaching 70–80% confluence.” left out, “Single cell suspensions were prepared and adjusted to a density of 2 × 10^5 cell/mL (HepG2) and 1 × 10^5 cell/mL (Balb/c 3T3). The cell suspension was transferred to 96-well plates (100 µL/well) and incubated for 24 h before exposure to the studied drugs.” left out
The concentration ranges of the drugs were chosen according to their solubility and their plasma level. […] The cytotoxicity was assessed after 24 and 48 h of exposure of cell lines or after 12 and 24 h exposure of PHH. […]
(§4) The metabolic activity of living cells was assessed by measuring the activity of dehydrogenases. […] The plate was shaken for 15 min at room temperature and transferred to a microplate reader to measure the absorbance at 570 nm, using a blank as a reference. Cytotoxicity was expressed as a percentage of the negative control (0.1% or 0.2% DMSO).

dogs = conditions: chronic toxicity study in dogs; cited from earlier work
[1] = tested on: primary human hepatocytes (PHH); test: TPC assay (total protein content) in primary human hepatocytes; assay type: cell-based; conditions: Hepatocyte, mean ± SEM, n = 3, read-out: EC50 (effective concentration)
Protocol: Cryopreserved PHH were purchased from the Primacyt GmbH (Schwerin, Germany). Two different lots were chosen based on CYP activity. The donor was a person. The post-thaw viability was 94.6% for lot HH160531 (used in two repetitions) and 85.0% for lot HH130805. The initial cell viability was determined with the trypan blue exclusion test. The cells were thawed and purified using the Plating and Thawing Kit (Primacyt GmbH). Purified hepatocytes were resuspended in Hepatocyte Plating Medium (Primacyt GmbH) and seeded on collagen-coated 96-well plates at a density of 9 × 10^5 cell/mL and incubated at 37 °C with 5% CO2. After 6 h of incubation, the medium was removed and the cells were washed with PBS. Then Human Hepatocyte Maintenance Medium (HHMM) (Primacyt GmbH) with the studied drugs was added to hepatocytes (100 µL/well). The culture conditions were kept according to the manufacturer’s protocol.
The concentration ranges of the drugs were chosen according to their solubility and their plasma level. Each drug was dissolved in DMSO. […] The cytotoxicity was assessed after 24 and 48 h of exposure of cell lines or after 12 and 24 h exposure of PHH. […]
as §3

PHH = test: Cytotoxicity battery (MTT, NRU, TPC, LDH) in PHH; assay type: cell-based, human; conditions: well tolerated at lower concentrations
Protocol: as §2, with “respectively. Prednisolone was tested in one concentration—1 µg/mL independent of the type of cells.” for “respectively.”
as §4
The assay, based on staining of living cells by neutral red (NR), was performed according to the protocol described by Borenfreund and Puerner. […] After 10 min of shaking, the absorbance of the dissolved NR was measured at 540 nm using a blank as a reference. […]

SMILES: CC[C@@H](C(=O)[C@@H](C)[C@@H](O)[C@H](C)[C@@H]1O[C@@H]([C@@H](CC)C(=O)O)CC[C@@H]1C)[C@H]1O[C@]2(C=C[C@@H](O)[C@]3(CC[C@@](C)([C@H]4CC[C@](O)(CC)[C@H](C)O4)O3)O2)[C@H](C)C[C@@H]1C [SAL, salinomycin]
- lowest concentration with significant effect on total protein content (Balb/c 3T3 cells; Balb/c 3T3, 24 h, SAL alone or in both drug combinations (Figure S3)): 0.39 µg/mL
- EC50 (Balb/c 3T3 cells; BALB/c3T3, 24 h): 7.9 ± 1.1 µg/mL
- EC50 (Balb/c 3T3 cells; BALB/c3T3, 48 h): 1.4 ± 0.5 µg/mL
- LD50 (horses): 0.6 mg/kg b.w.
- LD50 (rats): 50 mg/kg b.w.
- EC50 (HepG2 cells; 24 h exposure): 15.4 ± 1.7 µg/mL
- EC50 (HepG2 cells; 48 h exposure): 12.9 ± 1.4 µg/mL
- NOAEL (No Observed Adverse Effect Level) (dogs): 500 µg/kg b.w.
- EC50 ([1]; 12 h exposure): > 25 µg/mL
- EC50 ([1]; 24 h exposure): > 25 µg/mL
- concentrations exerting toxic effects (PHH): > 10000 ng/mL
